Legend:
[1] = tested on: chromodomain of MRG2 (His-MRG2N); experiment: Dot-blot / pull-down binding assay, His-MRG2N with methylated H3 peptides; parameters: species or system Arabidopsis; settings: Figure 1A, N-terminal His-tagged chromodomain, peptides residues 1–21 (K4, K9) or 21–44 (K27, K36)
Experimental: (§1) For the dot-blot binding assay, MRG1N (1–321, AT4G37280) and MRG2N (1–369, AT1G02740) cDNA were amplified by primers MRG1-1/MRG1-2 and MRG2-1/MRG2-2, respectively, and cloned into a pET-30a vector (Novagen, www.novagen.com). Site mutation was generated using a Takara MutanBEST Kit (http://www.takara-bio.com) with primers MRG2-3/MRG2-4. The in vitro binding assay of the chromodomain containing proteins with the histone peptides were performed as described previously. Methylated H3K4 (H3K4me1/2/3, residues 1–21), H3K9 (H3K9me1/2/3, residues 1–21), H3K27 (H3K27me1/2/3, residues 21–44), and H3K36 (H3K36me1/2/3, residues 21–44) peptides were synthesized by Scilight Biotechnology (http://www.scilight-peptide.com). Anti-monomethyl-H3K4 (07-436), anti-dimethyl-H3K4 (07-030), anti-trimethyl-H3K4 (07-473), anti-trimethyl-H3K9 (07-442), and anti-trimethyl-H3K27 (07-449) were purchased from Millipore (http://www.millipore.com), and anti-monomethyl-H3K36 (ab9048), anti-dimethyl-H3K36 (ab9049), and anti-trimethyl-H3K36 (ab9050) were purchased from Abcam (http://www.abcam.com).

[2] = tested on: Y87A substitution in MRG2 chromodomain (His-MRG2N(Y87A)); experiment: Dot-blot binding assay, His-MRG2N(Y87A) with methylated H3 peptides; parameters: species or system Arabidopsis; settings: Figure 7B; Tyr87Ala mutation in MRG2
Experimental: as §1

[3] = tested on: chromodomain of MRG1 (His-MRG1N); experiment: Dot-blot / pull-down binding assay, His-MRG1N with methylated H3 peptides; parameters: species or system Arabidopsis; settings: Figure 1A, N-terminal His-tagged chromodomain, peptides residues 1–21 (K4, K9) or 21–44 (K27, K36)
Experimental: as §1

EAF3 = settings: ref [29]; cited from earlier work
Source text: Firstly, via their chromodomain, MRG1/2 proteins act as readers that recognize methylated H3K4 and H3K36.

[4] = In vitro peptide pull-down from nuclear extracts with mass spectrometry; format: binding, Arabidopsis; settings: biotinylated H3 peptides (amino acids 21 to 44) on streptavidin-coated beads
Experimental: An in vitro peptide pull-down assay was used to identify the proteins that bind to histone H3 tail methylated at K36. Biotinylated histone H3 peptides (amino acids 21 to 44), with either unmethylated (control) or tri-methylated K36, were immobilized on the streptavidin-coated beads and incubated with Arabidopsis nuclear extracts. […] Members in this group have the same domain organization, with a chromodomain (chromatin organization modifier domain) near the N-terminus, and a MRG domain near the C-terminus (Figure S1). MRG2 has a homolog in Arabidopsis, MRG1, which shares with MRG2 49% identity and 65% similarity at the amino acid sequence level.

H3K36me3: methylated H3K36 peptide, residues 21–44 (dot-blot)
binding to chromodomain of MRG2 [1]: could bind
association with MRG2 Y87A [2]: disrupted its association
binding to chromodomain of MRG1 [3]: could bind
binding to EAF3 (EAF3): bind

H3K36me2: methylated H3K36 peptide, residues 21–44 (dot-blot)
binding to chromodomain of MRG2 [1]: could bind
binding to chromodomain of MRG1 [3]: could bind

mono-methylated H3K36: methylated H3K36 peptide, residues 21–44 (dot-blot)
binding to chromodomain of MRG1 [3]: not

H3 peptides tri-methylated at K36: Biotinylated histone H3 peptides (amino acids 21 to 44) with tri-methylated K36
protein bound from nuclear extract [4]: identified MRG2

mono-methylated H3K4: methylated H3K4 peptide, residues 1–21 (dot-blot)
binding to chromodomain of MRG1 [3]: not

H3K4me2: methylated H3K4 peptide, residues 1–21 (dot-blot)
binding to chromodomain of MRG2 [1]: could bind
binding to chromodomain of MRG1 [3]: could bind

H3K4me3: methylated H3K4 peptide, residues 1–21 (dot-blot), Scilight Biotechnology
binding to chromodomain of MRG2 [1]: could bind
association with MRG2 Y87A [2]: disrupted its association
binding to chromodomain of MRG1 [3]: could bind
binding to EAF3 (EAF3): only very weakly
